Laboratory results from the CheMixHub viscosity set.

Experiment: xn = mol fraction of the nth substance listed

CC/C=C\CCO + CCCCCC
viscosity [mPa·s], 100 kPa
Conditions	293.15 K	298.15 K	303.15 K	308.15 K	313.15 K	318.15 K
x1 = 0.025	0.3277	0.3128	0.3002	0.2869	0.2756	0.2648
x1 = 0.0501	0.3397	0.3264	0.3121	0.2966	0.2844	0.2727
x1 = 0.1	0.3655	0.3504	0.3343	0.3164	0.3024	0.2892
x1 = 0.2001	0.4403	0.4139	0.392	0.369	0.3498	0.3318
x1 = 0.2999	0.5582	0.5227	0.4881	0.4558	0.4197	0.3967
x1 = 0.4003	0.6649	0.6196	0.5788	0.5377	0.497	0.467
x1 = 0.4994	0.8527	0.7851	0.7244	0.6686	0.6173	0.5715
x1 = 0.5998	1.103	1.005	0.9179	0.8404	0.7733	0.7131
x1 = 0.6998	1.451	1.306	1.18	1.07	0.978	0.889
x1 = 0.7995	1.878	1.701	1.522	1.366	1.238	1.126
x1 = 0.8996	2.51	2.234	1.981	1.763	1.58	1.429

CCN(CC)S(C)(=O)=O + CCCCO
303.15 K, 101.33 kPa
Conditions	viscosity [mPa·s]
x1 = 0.0631	20450
x1 = 0.1404	19420
x1 = 0.2197	19180
x1 = 0.2937	19420
x1 = 0.3626	19850
x1 = 0.4515	20780
x1 = 0.5227	21750
x1 = 0.6053	23400
x1 = 0.6908	25500
x1 = 0.7579	27420
x1 = 0.8437	30890
x1 = 0.9281	35520

CCOC(=O)C(C)O (centres undefined) + COCCOCCOCCOCCOC
101 kPa
Conditions	viscosity [mPa·s]
303.15 K, x1 = 0.3998	2.815
308.15 K, x1 = 0.6001	2.385
323.15 K, x1 = 0.8001	1.605

C1CCCCCCC1 + Cc1ccccc1
303 K, 101 kPa
Conditions	viscosity [mPa·s]
x2 = 0.0411	1.726
x2 = 0.1605	1.259
x2 = 0.3113	1.024
x2 = 0.4874	0.8342
x2 = 0.6192	0.7126
x2 = 0.7463	0.627
x2 = 0.8614	0.5716
x2 = 0.9174	0.5484
x2 = 0.973	0.5311

CCCCC + CCCO
298.15 K, 101.33 kPa
Conditions	viscosity [mPa·s]
x2 = 0.0291	0.242
x2 = 0.0777	0.256
x2 = 0.1952	0.29
x2 = 0.3332	0.357
x2 = 0.403	0.41
x2 = 0.4771	0.484
x2 = 0.6076	0.666
x2 = 0.7373	0.949
x2 = 0.8545	1.333
x2 = 0.9586	1.778

CCCCCCCO + CCCCO
viscosity [mPa·s], 101 kPa
Conditions	298.15 K	308.15 K	318.15 K
x2 = 0.08	5.586	4.11	3.063
x2 = 0.15	5.398	3.965	2.971
x2 = 0.22	5.211	3.829	2.883
x2 = 0.28	5.027	3.7	2.798
x2 = 0.34	4.844	3.576	2.714
x2 = 0.4	4.664	3.456	2.632
x2 = 0.46	4.487	3.34	2.551
x2 = 0.51	4.313	3.226	2.47
x2 = 0.56	4.142	3.115	2.391
x2 = 0.61	3.976	3.004	2.312
x2 = 0.66	3.813	2.894	2.233
x2 = 0.7	3.654	2.785	2.155
x2 = 0.74	3.499	2.677	2.077
x2 = 0.79	3.348	2.57	2
x2 = 0.82	3.201	2.463	1.923
x2 = 0.86	3.058	2.359	1.847
x2 = 0.9	2.919	2.256	1.772
x2 = 0.93	2.783	2.157	1.698
x2 = 0.97	2.652	2.061	1.627

CS(C)=O + CCCCCCCO
101 kPa
Conditions	viscosity [mPa·s]
303.15 K, x1 = 0.1547	4.098
303.15 K, x1 = 0.3356	3.3
303.15 K, x1 = 0.4628	2.842
303.15 K, x1 = 0.5727	2.55
303.15 K, x1 = 0.6715	2.336
303.15 K, x1 = 0.7519	2.179
303.15 K, x1 = 0.8247	2.052
303.15 K, x1 = 0.8847	1.987
303.15 K, x1 = 0.9327	1.891
313 K, x1 = 0.1239	3.068
313 K, x1 = 0.2133	2.75
313 K, x1 = 0.2979	2.528
313 K, x1 = 0.4847	2.188
313 K, x1 = 0.5993	1.998
313 K, x1 = 0.7039	1.839
313 K, x1 = 0.8016	1.743
313 K, x1 = 0.9028	1.621

CCCCC + CCCCCC
298.15 K, 101.33 kPa
Conditions	viscosity [mPa·s]
x1 = 0.1045	0.2898
x1 = 0.2098	0.2802
x1 = 0.3107	0.2724
x1 = 0.4113	0.2641
x1 = 0.5105	0.2574
x1 = 0.6025	0.2497
x1 = 0.7041	0.2432
x1 = 0.7966	0.2364
x1 = 0.8997	0.228

C[N+](C)(C)CCC[n+]1ccccc1.N#C[N-]C#N.N#C[N-]C#N + CO
viscosity [mPa·s], 100 kPa
Conditions	293.15 K	303.15 K	313.15 K
x1 = 0.2001	–	11.45	–
x1 = 0.8995	952.8	–	198.5

CCN(CC)CCO + O
Conditions	viscosity [mPa·s]
293.15 K, 101 kPa, x1 = 0.062	4.536
298.15 K, 101 kPa, x1 = 0.062	3.689
298.15 K, 101.33 kPa, x1 = 0.0039	0.991
298.15 K, 101.33 kPa, x1 = 0.008	1.104
298.15 K, 101.33 kPa, x1 = 0.0121	1.233
298.15 K, 101.33 kPa, x1 = 0.0169	1.4
298.15 K, 101.33 kPa, x1 = 0.0261	1.752
298.15 K, 101.33 kPa, x1 = 0.0372	2.242
298.15 K, 101.33 kPa, x1 = 0.0602	3.439
298.15 K, 101.33 kPa, x1 = 0.0909	5.404
298.15 K, 101.33 kPa, x1 = 0.1326	8.287
298.15 K, 101.33 kPa, x1 = 0.1883	11.72
298.15 K, 101.33 kPa, x1 = 0.3136	15.25
298.15 K, 101.33 kPa, x1 = 0.4547	14.14
298.15 K, 101.33 kPa, x1 = 0.5001	13.45
298.15 K, 101.33 kPa, x1 = 0.6638	9.491
298.15 K, 101.33 kPa, x1 = 0.758	6.903
298.15 K, 101.33 kPa, x1 = 0.8765	5.478
298.15 K, 101.33 kPa, x1 = 0.9544	4.484
303.15 K, 100 kPa, x1 = 0.06181	3
303.15 K, 100 kPa, x1 = 0.09296	4.51
303.15 K, 101 kPa, x1 = 0.02641	1.53
303.15 K, 101 kPa, x1 = 0.062	3.048
303.15 K, 101 kPa, x1 = 0.1117	5.23
303.15 K, 101.33 kPa, x1 = 0.0039	0.885
303.15 K, 101.33 kPa, x1 = 0.008	0.98
303.15 K, 101.33 kPa, x1 = 0.0121	1.085
303.15 K, 101.33 kPa, x1 = 0.0169	1.219
303.15 K, 101.33 kPa, x1 = 0.0261	1.495
303.15 K, 101.33 kPa, x1 = 0.0372	1.887
303.15 K, 101.33 kPa, x1 = 0.0602	2.82
303.15 K, 101.33 kPa, x1 = 0.0909	4.364
303.15 K, 101.33 kPa, x1 = 0.1326	6.361
303.15 K, 101.33 kPa, x1 = 0.1883	8.984
303.15 K, 101.33 kPa, x1 = 0.3789	11.36
303.15 K, 101.33 kPa, x1 = 0.5883	8.745
303.15 K, 101.33 kPa, x1 = 0.6638	7.615
303.15 K, 101.33 kPa, x1 = 0.758	5.577
303.15 K, 101.33 kPa, x1 = 0.8765	4.459
303.15 K, 101.33 kPa, x1 = 0.9544	3.65
308.15 K, 101 kPa, x1 = 0.062	2.552
313.15 K, 100 kPa, x1 = 0.06181	2.13
313.15 K, 100 kPa, x1 = 0.09296	3.08
313.15 K, 101 kPa, x1 = 0.02641	1.18
313.15 K, 101 kPa, x1 = 0.06181	2.07
313.15 K, 101 kPa, x1 = 0.062	2.165
313.15 K, 101 kPa, x1 = 0.1117	3.5
313.15 K, 101.33 kPa, x1 = 0.0039	0.723
313.15 K, 101.33 kPa, x1 = 0.008	0.791
313.15 K, 101.33 kPa, x1 = 0.0121	0.866
313.15 K, 101.33 kPa, x1 = 0.0169	0.958
313.15 K, 101.33 kPa, x1 = 0.0261	1.149
313.15 K, 101.33 kPa, x1 = 0.0372	1.412
313.15 K, 101.33 kPa, x1 = 0.0602	2.016
313.15 K, 101.33 kPa, x1 = 0.0909	2.912
313.15 K, 101.33 kPa, x1 = 0.1326	4.179
313.15 K, 101.33 kPa, x1 = 0.1883	5.497
313.15 K, 101.33 kPa, x1 = 0.2629	6.627
313.15 K, 101.33 kPa, x1 = 0.3136	7.004
313.15 K, 101.33 kPa, x1 = 0.3789	7.054
313.15 K, 101.33 kPa, x1 = 0.4547	6.685
313.15 K, 101.33 kPa, x1 = 0.6638	4.668
313.15 K, 101.33 kPa, x1 = 0.758	3.694
313.15 K, 101.33 kPa, x1 = 0.8765	3.059
313.15 K, 101.33 kPa, x1 = 0.9544	2.639
318.15 K, 101 kPa, x1 = 0.062	1.86
323.15 K, 100 kPa, x1 = 0.06181	1.6
323.15 K, 101 kPa, x1 = 0.02641	0.93
323.15 K, 101 kPa, x1 = 0.06181	1.55
323.15 K, 101 kPa, x1 = 0.062	1.617
323.15 K, 101 kPa, x1 = 0.1117	2.51

CCN(CC)S(C)(=O)=O + CO
303.15 K, 101.33 kPa
Conditions	viscosity [mPa·s]
x1 = 0.065	60400
x1 = 0.1394	73000
x1 = 0.2155	88400
x1 = 0.2885	103400
x1 = 0.3717	123400
x1 = 0.4509	145100
x1 = 0.5148	164500
x1 = 0.5856	187800
x1 = 0.6922	228900
x1 = 0.7686	263600
x1 = 0.8304	295600
x1 = 0.9084	341400

C[N+](C)(C)CCC[n+]1ccccc1.N#C[N-]C#N.N#C[N-]C#N + CC#N
100 kPa
Conditions	viscosity [mPa·s]
293.15 K, x1 = 0.1999	10.75
298.15 K, x1 = 0.0999	3.205
298.15 K, x1 = 0.1999	9.545
298.15 K, x1 = 0.4999	98.11
308.15 K, x1 = 0.2998	20.95
313.15 K, x1 = 0.2998	18.15
318.15 K, x1 = 0.7998	117.5

CCC(N)=O + [Al+3].[Cl-].[Cl-].[Cl-]
viscosity [mPa·s], 101 kPa
Conditions	x2 = 0.5	x2 = 0.52	x2 = 0.57	x2 = 0.6	x2 = 0.63
313 K	32.65	25.38	23.95	24.65	25.32
323 K	23.49	19.12	17.93	18.32	18.7

CCCCCCCO + CC#N
viscosity [mPa·s], 101 kPa
Conditions	298.15 K	303.15 K	308.15 K
x2 = 0.0959	3.772	3.561	2.881
x2 = 0.2368	2.953	2.592	2.277
x2 = 0.3327	2.267	2.022	1.808
x2 = 0.4126	1.836	1.634	1.457
x2 = 0.5459	1.278	1.149	1.047
x2 = 0.6546	0.943	0.857	0.786
x2 = 0.741	0.716	0.658	0.611
x2 = 0.8119	0.58	0.547	0.51
x2 = 0.8706	0.487	0.463	0.433
x2 = 0.9199	0.423	0.402	0.382
x2 = 0.9633	0.384	0.366	0.35
